According to article PMC11940309, “Endocrine-Disrupting Activities of Flavones on Steroid Receptors: Structural Requirements and Synthesis of Novel Flavone with Improved Estrogenic Activity” (Biomedicines, 2025):
Like-named read-outs stand apart in the source and are kept apart here.

How the values were obtained:
[1] = molecular target: T1, glucocorticoid receptor (GR) (Rattus norvegicus, UniProt P06536); assay: GR-mediated induction of transcription by dexamethasone in T47D (A1-2) cells (luciferase reporter and endogenous alkaline phosphatase); assay type: cell-based, human; settings: dexamethasone 1.0 nM; for inhibition at 4 µM / inhibition at 8 µM: T47D, read-out: % Inhibition of GR Induction
T1 construct: host or cells: T47D (A1-2)
T1 sequence (P06536 1-795): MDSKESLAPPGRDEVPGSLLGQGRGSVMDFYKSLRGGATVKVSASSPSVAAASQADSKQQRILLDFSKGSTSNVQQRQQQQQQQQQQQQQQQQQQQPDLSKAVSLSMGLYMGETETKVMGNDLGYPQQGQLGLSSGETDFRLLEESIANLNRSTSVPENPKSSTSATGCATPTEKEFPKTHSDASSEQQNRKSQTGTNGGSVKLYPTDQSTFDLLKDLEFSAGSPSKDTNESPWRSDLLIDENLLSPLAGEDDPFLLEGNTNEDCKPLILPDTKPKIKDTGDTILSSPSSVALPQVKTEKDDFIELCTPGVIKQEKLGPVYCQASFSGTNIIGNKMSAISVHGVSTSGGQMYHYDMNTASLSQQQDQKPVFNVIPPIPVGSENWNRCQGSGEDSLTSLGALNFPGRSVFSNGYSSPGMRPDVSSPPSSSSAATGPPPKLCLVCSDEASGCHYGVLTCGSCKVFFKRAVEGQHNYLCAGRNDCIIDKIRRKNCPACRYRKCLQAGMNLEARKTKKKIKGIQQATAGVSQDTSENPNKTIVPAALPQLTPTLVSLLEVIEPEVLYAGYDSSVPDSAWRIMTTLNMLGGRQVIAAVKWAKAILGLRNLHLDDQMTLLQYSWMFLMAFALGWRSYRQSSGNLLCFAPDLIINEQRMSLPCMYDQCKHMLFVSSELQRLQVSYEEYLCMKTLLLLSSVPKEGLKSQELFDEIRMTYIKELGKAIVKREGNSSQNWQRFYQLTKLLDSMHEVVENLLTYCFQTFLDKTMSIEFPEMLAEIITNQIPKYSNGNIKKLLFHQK
Excerpt: The engineered T47D breast cancer cell lines employed for the assessment of flavonoid activity on glucocorticoid receptor (GR) and progesterone receptor (PR) signaling permitted the facile quantitation transcription of both an endogenous gene and a stably integrated reporter gene. […] The T47D K5pLuc cell line responds to progestins via induction of a stably integrated cytokeratin 5-luciferase reporter gene. […] For assessment of the effect of the test compounds on androgen receptor (AR) signaling, we used the HeLa13 cell line engineered to stably express human AR and a PSA-luciferase reporter gene containing a 4× multimerized PSA upstream enhancer ARE1 linked to the E4 TATA box and luciferase gene.
For assessment of the effect of flavones on glucocorticoid receptors, T47D (A1-2) cells were maintained in Minimal Essential Medium, 10% Fetal Bovine Serum (FBS), 0.2 mg/mL G418, penicillin (100 U/mL), and streptomycin (100 μg/mL). For experiments, medium was removed, and cultures rinsed with Phosphate-Buffered Saline (PBS) + 1.0 mM EDTA (PBSE), detached with trypsin, pelleted, and resuspended in medium to a concentration of 500,000 cells/mL. Aliquots of cell suspension, 100 microliters/well, were transferred into a 96-well, white, flat-bottomed plate and allowed to attach for 24 h. The following day, each well was treated with a 50 microliter aliquot of a test compound diluted in medium. Controls received medium containing DMSO diluted in the same way. For hormone treatment, dexamethasone was diluted in medium and added as 50 microliter aliquots so that the final volume in each well was 200 microliters. The final concentration of dexamethasone was 1.0 nM. Controls received medium without hormone. Hormone treatment was for 20 h at which time cells were harvested for assay of alkaline phosphatase and luciferase.
For all cell lines, cell harvesting and the luminescence assay for alkaline phosphatase and/or luciferase were performed as previously described in detail. Each condition was performed in quadruplicate. […] Percent inhibition is 100 minus the percent induction.

[2] = molecular target: T2, progesterone receptor (PR) (Homo sapiens, UniProt P06401); assay: PR-mediated induction of transcription by R5020 in T47D K5pLuc cells (luciferase reporter and endogenous alkaline phosphatase); assay type: cell-based; settings: R5020 1.0 nM; for inhibition at 4 µM / inhibition at 8 µM: T47D
T2 sequence (P06401 679-933 limits assumed): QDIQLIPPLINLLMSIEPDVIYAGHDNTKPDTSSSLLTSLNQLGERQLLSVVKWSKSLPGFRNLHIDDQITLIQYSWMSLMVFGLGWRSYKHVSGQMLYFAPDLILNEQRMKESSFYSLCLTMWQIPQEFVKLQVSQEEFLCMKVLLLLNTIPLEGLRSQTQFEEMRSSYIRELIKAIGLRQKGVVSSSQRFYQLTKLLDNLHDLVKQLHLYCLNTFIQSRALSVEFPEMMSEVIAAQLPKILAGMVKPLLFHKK
Summary of the method: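 T47D K5pLuc cells, carrying a stably integrated cytokeratin 5-luciferase reporter, were treated with 1.0 nM R5020 plus compound for 20 h in DMEM/10% FBS. Luciferase and endogenous alkaline phosphatase measured by luminescence, in quadruplicate. Percent inhibition = 100 minus percent induction.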

[3] = test system: estrogen receptor (ER); assay: ER-mediated luciferase reporter induction in T47D KBluc cells; assay type: cell-based, human; settings: relative to 1nM estradiol
Summary of the method: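 T47D KBluc cells hormone-deprived in phenol red-free RPMI with charcoal-stripped FBS for several days, then replated at 50,000 cells/well for compound treatment. Luciferase luminescence measured in quadruplicate; percent inhibition taken as 100 minus percent induction.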

[4] = 4 µM, AP (alkaline phosphatase)
[5] = 8 µM, AP (alkaline phosphatase)

% Inhibition of GR Induction [1, 4] [%]	% Inhibition of GR Induction ([1]; 4 µM, LUC (luciferase)) [%]	% Inhibition of GR Induction [1, 5] [%]	% Inhibition of GR Induction ([1]; 8 µM, LUC (luciferase)) [%]	% Inhibition of PR Induction [2, 4] [%]	% Inhibition of PR Induction ([2]; 4 µM, LUC (luciferase)) [%]	% Inhibition of PR Induction [2, 5] [%]	% Inhibition of PR Induction ([2]; 8 µM, LUC (luciferase)) [%]	inhibition at 4 µM [1, 4] [%]	inhibition at 4 µM ([1]; 4 µM, LUC (luciferase)) [%]	inhibition at 8 µM [1, 5] [%]	inhibition at 8 µM ([1]; 8 µM, LUC (luciferase)) [%]	inhibition at 4 µM [2, 4] [%]	inhibition at 4 µM ([2]; 4 µM, LUC (luciferase)) [%]	inhibition at 8 µM [2, 5] [%]	inhibition at 8 µM ([2]; 8 µM, LUC (luciferase)) [%]	Structure (SMILES)	% ER Induction ([3]; 1 µM) [%]	% ER Induction ([3]; 4 µM) [%]
−19	5	46	−25	12	−97	45	−19									O=c1cc(-c2cc(O)c(O)c(O)c2)oc2cc(O)cc(O)c12 [5,7,3′4′,5′-pentahydroxyflavone]	0	−1
								8	15	7	19	43	52	90	98	O=C1CC(c2ccc(O)cc2)Oc2cc(O)cc(O)c21 (stereo not shown) [5,7,4′-trihydroxyflavanone]	48	93
								21	-117	36	-87	13	-11	39	-10	O=c1cc(-c2ccc(O)c(O)c2)oc2cc(O)ccc12 [7,3′,4′-trihydroxyflavone]	0	30
										5	-52	41	-13	38	-126	O=c1c(-c2ccc(O)cc2)coc2cc(O)ccc12 [7,4′-dihydroxyisoflavone]	125	
